What was measured:
SU-DHL-6 = assay: ATPlite cell IC50 screening, SU-DHL-6; assay type: cell-based; conditions: Homo sapiens; SU-DHL-6, Diffuse large B-cell lymphoma; ATPlite luminescence
Procedure: (§1) In brief, the cells were cultures in relevant medium and treated with a range of 9 doses of 2-deoxyribitol, from 10 mM, 5 mM, 2.5 mM, 1.25 mM, 0.62 mM, 0.31 mM, 0.08 mM, and 0.04 mM. Cells were diluted in the corresponding ATCC recommended medium and dispensed in a 384-well plate, depending on the cell line used, at a density of 100-6400 cells per well in 45 μl medium. For each used cell line the optimal cell density was used. The margins of the plate were filled with phosphate-buffered saline. Plated cells were incubated in a humidified atmosphere of 5% CO2 at 37° C. After 24 hours, 5 μl of compound dilution was added and plates were further incubated. At the end of experiment (t=end), 24 μl of ATPlite 1Step™ (PerkinElmer) solution was added to each well, and subsequently shaken for 2 minutes. After 10 minutes of incubation in the dark, the luminescence was recorded on an Envision multimode reader (PerkinElmer). IC50 was determined in comparison with the control samples. The cell lines tested and their corresponding disease model is indicated the left-most and middle columns, respectively. IC50 values are given in μM values in the right-most column. This screening was performed of a list of cancer cells to establish IC50 values for each of the cancer cell lines. This screening provides evidence for the potential of 2DR to treat many cancer types.

Jurkat E6.1 = assay: ATPlite cell IC50 screening, Jurkat E6.1; assay type: cell-based; conditions: Homo sapiens; Jurkat E6.1, Childhood T acute lymphoblastic leukemia; ATPlite luminescence
Procedure: as §1

ES-2 = assay: ATPlite cell IC50 screening, ES-2; assay type: cell-based; conditions: Homo sapiens; ES-2, Ovarian clear cell adenocarcinoma; ATPlite luminescence
Procedure: as §1

KU812 = assay: ATPlite cell IC50 screening, KU812; assay type: cell-based; conditions: Homo sapiens; KU812, Chronic myelogenous leukemia; ATPlite luminescence
Procedure: as §1

SW837 = assay: ATPlite cell IC50 screening, SW837; assay type: cell-based; conditions: Homo sapiens; SW837, Rectal adenocarcinoma; ATPlite luminescence
Procedure: as §1

Daoy = assay: ATPlite cell IC50 screening, Daoy; assay type: cell-based; conditions: Homo sapiens, Medulloblastoma, ATPlite luminescence
Procedure: as §1

BT-549 = assay: ATPlite cell IC50 screening, BT-549; assay type: cell-based; conditions: Homo sapiens; BT-549, Invasive ductal carcinoma; ATPlite luminescence
Procedure: as §1

JAR = assay: ATPlite cell IC50 screening, JAR; assay type: cell-based; conditions: Gestational choriocarcinoma, ATPlite luminescence
Procedure: as §1

HT-1080 = assay: ATPlite cell IC50 screening, HT-1080; assay type: cell-based; conditions: Homo sapiens; HT-1080, Fibrosarcoma; ATPlite luminescence
Procedure: as §1

RT4 = assay: ATPlite cell IC50 screening, RT4; assay type: cell-based; conditions: Homo sapiens, RT-4; RT4, Bladder carcinoma; ATPlite luminescence
Procedure: as §1

[1] = tested on: MDA231 cells (triple negative breast cancer cell); assay: MDA231 cell growth; assay type: cell-based
Procedure: However, this effect was not related to the enhanced expression of glycosylation of α-DG.
(§2) Less than 50% of cells and 10% of cells were detected with the treatment of 10 mM and 50 mM 2-deoxyribitol, respectively.

Storage stability = assay type: physicochemical; conditions: 4 degrees Celsius, highly stable
Excerpt: It can be delivered by direct application to local areas, given orally or through vasculature system. 2-deoxyribitol can also be delivered before, at the same time, or after the use of other drugs. 2-deoxyribitol can be applied as treatment for cancers before, at the same time, or after any other treatment procedure(s). In addition, the effect of 2-deoxyribitol on three tissue types of cancers indicate that it can be applied for many other epithelial cancers.

DLD-1 = assay: ATPlite cell IC50 screening, DLD-1; assay type: cell-based; conditions: Homo sapiens; DLD-1, Colon adenocarcinoma; ATPlite luminescence
Procedure: as §1

A-427 = assay: ATPlite cell IC50 screening, A-427; assay type: cell-based; conditions: Homo sapiens; A-427, Lung adenocarcinoma; ATPlite luminescence
Procedure: as §1

SW900 = assay: ATPlite cell IC50 screening, SW900; assay type: cell-based; conditions: Homo sapiens; SW900, Squamous cell lung carcinoma; ATPlite luminescence
Procedure: as §1

NCI-H82 = assay: ATPlite cell IC50 screening, NCI-H82; assay type: cell-based; conditions: Homo sapiens; NCI-H82, Small cell lung carcinoma; ATPlite luminescence
Procedure: as §1

CCRF-CEM = assay: ATPlite cell IC50 screening, CCRF-CEM; assay type: cell-based; conditions: Homo sapiens, Childhood T acute lymphoblastic leukemia, ATPlite luminescence
Procedure: as §1

COLO 829 = assay: ATPlite cell IC50 screening, COLO 829; assay type: cell-based; conditions: Homo sapiens; COLO 829, Cutaneous melanoma; ATPlite luminescence
Procedure: as §1

[2] = tested on: normal human breast epithelial cells MCF7-10F; assay: Normal breast epithelial cell culture (FIG. 8); assay type: cell-based; conditions: 2-40 mM, 4 days
Procedure: 2-deoxyribitol was given in ascending doses of 2 mM (top middle panel), 5 mM (top right panel), 10 mM (bottom left panel), 20 mM (bottom middle panel), and 40 mM (bottom right panel). No significant differences were observed between the control and drug-treated cells at any dose.
In contrast, 2-deoxyribitol produced unnoticeable changes in cell culture of normal human myoblasts or differentiated myotubes (FIG. 7), indicating its low toxicity potential to normal cell populations. In this study, normal human myoblasts (HSKM cells) were treated with 2-deoxyribitol (Drug) for 3 days.

SU-DHL-1 = assay: ATPlite cell IC50 screening, SU-DHL-1; assay type: cell-based; conditions: Homo sapiens; SU-DHL-1, Anaplastic large cell lymphoma; ATPlite luminescence
Procedure: as §1

BxPC-3 = assay: ATPlite cell IC50 screening, BxPC-3; assay type: cell-based; conditions: Homo sapiens; BxPC-3, Pancreatic ductal adenocarcinoma; ATPlite luminescence
Procedure: as §1

RL95-2 = assay: ATPlite cell IC50 screening, RL95-2; assay type: cell-based; conditions: Homo sapiens; RL95-2, Endometrial adenosquamous carcinoma; ATPlite luminescence
Procedure: as §1

SJCRH30 = assay: ATPlite cell IC50 screening, SJCRH30; assay type: cell-based; conditions: SJCRH30, Alveolar rhabdomyosarcoma; ATPlite luminescence
Procedure: as §1

THP-1 = assay: ATPlite cell IC50 screening, THP-1; assay type: cell-based; conditions: Homo sapiens; THP-1, Childhood acute monocytic leukemia; ATPlite luminescence
Procedure: as §1

breast cancer T47D cells = assay: T47D cell growth; assay type: cell-based
Procedure: as §2

ACHN = assay: ATPlite cell IC50 screening, ACHN; assay type: cell-based; conditions: Homo sapiens, Papillary renal cell carcinoma, ATPlite luminescence
Procedure: as §1

OCC[C@H](O)[C@H](O)CO [2-deoxyribitol]
IC50 (SU-DHL-6): 4.06 mM
IC50 (Jurkat E6.1): 4.65 mM
IC50 (ES-2): 8.74 mM
IC50 (KU812): 4.3 mM
IC50 (SW837): 9.79 mM
IC50 (Daoy): 6.24 mM
IC50 (BT-549): 4.27 mM
IC50 (JAR): 3.6 mM
IC50 (HT-1080): 4.39 mM
IC50 (RT4): > 10 mM
inhibitory effect as seen in MCF7 (growth / anchorage independent growth) ([1]; MDA231, concentrations lower than 10 mM): clearly demonstrated
inhibiting cell growth ([1]; MDA231 cells): had an effect on inhibiting cell growth
stability on storage (Storage stability): at least 6 months
IC50 (DLD-1): 4.53 mM
IC50 (A-427): 3.95 mM
IC50 (SW900): 3.19 mM
IC50 (NCI-H82): 2.94 mM
IC50 (CCRF-CEM): 5.97 mM
IC50 (COLO 829): 6.37 mM
growth inhibition or cell death of normal breast cells [2]: did not inhibit growth or cause cell death
IC50 (SU-DHL-1): 2.65 mM
IC50 (BxPC-3): 7.81 mM
IC50 (RL95-2): 6.42 mM
IC50 (SJCRH30): 4.46 mM
IC50 (THP-1): 5.19 mM
inhibiting cell growth (breast cancer T47D cells): had an effect on inhibiting cell growth
IC50 (ACHN): 3.14 mM
